These results are taken from ChEMBL document CHEMBL4342418, “1,2,3-Triazole-containing hybrids as potential anticancer agents: Current developments, action mechanisms and structure-activity relationships” (Eur J Med Chem, 2019).

In one assay the test system is U-87 MG. The assay can be described thus: Antiproliferative activity against human U87 cells assessed as reduction in cell viability after 72 hrs by MTT assay. Format: functional, cell-based, U-87MG ATCC.
A further assay relates to IMR-32. The assay can be described thus: Antiproliferative activity against human IMR32 cells assessed as reduction in cell viability after 72 hrs by MTT assay. In kind it is functional, cell-based. The following applies: IMR-32, 72 h.
Assay [1] deals with MDA-MB-231. Description: Antiproliferative activity against human MDA-MB-231 cells assessed as reduction in cell viability after 72 hrs by MTT assay. In kind it is functional, cell-based. The following applies: MDA-MB-231, 72 h, read-out: IC50.
The subject of assay [2] is A549. Description: Antiproliferative activity against human A549 cells assessed as reduction in cell viability after 48 hrs by SRB assay. Format: functional, cell-based. The following applies: A549, 48 h.
Assay [3] has as its system HCT-116. The assay can be described thus: Antiproliferative activity against human HCT116 cells assessed as reduction in cell viability after 48 hrs by SRB assay. Format: functional, cell-based. The following applies: HCT-116, 48 h.
For assay [4], the system named is HT-29. The assay can be described thus: Antiproliferative activity against human HT-29 cells assessed as reduction in cell viability after 48 hrs by SRB assay. Format: functional, cell-based. The following applies: HT-29, 48 h.
Assay [5] relates to MCF7. Description: Antiproliferative activity against human MCF7 cells assessed as reduction in cell viability after 48 hrs by SRB assay. The following applies: MCF7, 48 h. In kind it is functional, cell-based.
Assay [6] relates to HT-29. Description: Antiproliferative activity against human HT-29 cells assessed as reduction in cell viability after 72 hrs by MTT assay. In kind it is functional, cell-based. The following applies: HT-29, 72 h.
In another assay the test system is MOLT-4. The assay can be described thus: Antiproliferative activity against human MOLT4 cells assessed as reduction in cell viability after 72 hrs by MTT assay. In kind it is functional, cell-based. The following applies: MOLT-4, 72 h.
Assay [7] relates to MCF7. Description: Antiproliferative activity against human MCF7 cells assessed as reduction in cell viability after 72 hrs by MTT assay. Format: functional, cell-based. The following applies: MCF7, 72 h.
The subject of the next assay is HBL-100. The assay can be described thus: Antiproliferative activity against human HBL100 cells assessed as reduction in cell viability after 48 hrs by MTT assay. Format: functional, cell-based. The following applies: HBL-100, 48 h.
The subject of assay [8] is A549. Description: Antiproliferative activity against human A549 cells assessed as reduction in cell viability after 48 hrs by MTT assay. Format: functional, cell-based. The following applies: A549, 48 h.
Assay [9] has as its system HCT-116. Description: Antiproliferative activity against human HCT116 cells assessed as reduction in cell viability after 48 hrs by MTT assay. In kind it is functional, cell-based. The following applies: HCT-116, 48 h.
In assay [10] the test system is HT-29. Description: Antiproliferative activity against human HT-29 cells assessed as reduction in cell viability after 48 hrs by MTT assay. Format: functional, cell-based. The following applies: HT-29, 48 h.
For assay [11], the system named is DU-145. Description: Antiproliferative activity against human DU145 cells by MTT assay. Format: functional, cell-based.
For assay [12], the system named is A549. The assay can be described thus: cells. In kind it is functional, cell-based. The following applies: Homo sapiens.
Description: Antiproliferative activity against human A549 cells by MTT assay
Assay [13] has as its system HT-29. The assay can be described thus: Antiproliferative activity against human HT-29 cells by MTT assay. Format: functional, cell-based.
In a further assay the test system is MV4-11. Description: Antiproliferative activity against human MV4-11 cells by MTT assay. In kind it is functional, cell-based.
The test system of the next assay is MCF-10A. The assay can be described thus: Cytotoxicity against human MCF10A cells by MTT assay. In kind it is cell-based.
Assay [14] relates to MCF7. Description: cells. Format: functional, cell-based. The following applies: Homo sapiens.
Description: Antiproliferative activity against human MCF7 cells by MTT assay
A further assay concerns PC-3. The assay can be described thus: cells. The following applies: Homo sapiens, PC-3, 48 h. Format: functional, cell-based.
The subject of another assay is HGC-27. The assay can be described thus: Antiproliferative activity against human HGC27 cells assessed as reduction in cell viability after 48 hrs by MTT assay. Format: functional, cell-based. The following applies: HGC-27, 48 h.
The subject of assay [15] is MDA-MB-231. Description: Antiproliferative activity against human MDA-MB-231 cells by MTT assay. In kind it is functional, cell-based.
The test system of a further assay is HEK293. The assay can be described thus: Cytotoxicity against HEK293 cells by MTT assay. The following applies: Homo sapiens. In kind it is cell-based.
The test system of another assay is SK-OV-3. The assay can be described thus: Antiproliferative activity against human SKOV3 cells by SRB assay. In kind it is functional, cell-based.
The subject of assay [16] is A549. Description: Antiproliferative activity against human A549 cells by SRB assay. Format: functional, cell-based.
For assay [17], the system named is MCF7. The assay can be described thus: Antiproliferative activity against human MCF7 cells by SRB assay. In kind it is functional, cell-based.
Assay [18] concerns DU-145. Description: Antiproliferative activity against human DU145 cells by SRB assay. In kind it is functional, cell-based.
A further assay deals with HeLa. Description: Antiproliferative activity against human HeLa cells by SRB assay. In kind it is functional, cell-based.
The subject of another assay is MCF7-DOX. The assay can be described thus: Antiproliferative activity against human MCF7/Dox cells by SRB assay. In kind it is functional, cell-based.
Another assay relates to HepG2. The assay can be described thus: Antiproliferative activity against human HepG2 cells by SRB assay. In kind it is functional, cell-based.

Description for PC-3: Antiproliferative activity against human PC3 cells assessed as reduction in cell viability after 48 hrs by MTT assay

For the compound `Cc1n[nH]c(=O)c2c1c1cc(F)ccc1n2Cc1cn(C2CCCCC2)nn1`, the IC50 in the assay on U-87 MG, in the assay on IMR-32 and in the assay on MDA-MB-231 [1] was 42 to 478 nM each time.
`Cc1ccc(-c2nn(-c3ccccc3)cc2/C=C/C(=O)OCc2cn(-c3ccc([N+](=O)[O-])cc3)nn2)cc1`: the IC50 in the assay on A549 [2], with HCT-116 [3], with HT-29 [4] and in the assay on MCF7 [5] was 1.76 to 9.46 µM each time.
`O=C1C=C(NCc2cn(Cc3ccc(C(F)(F)F)cc3)nn2)C(=O)c2ccccc21`: the IC50 in the assay with HT-29 [6], in the assay on MOLT-4 and with MCF7 [7] was 6.8 to 10.4 µM throughout.
With `COc1cc(-n2cc(CO[C@H]3CC[C@@]4(C)C(=CC[C@H]5[C@@H]6C[C@@H]7O[C@]8(CC[C@@H](C)CO8)[C@@H](C)[C@@H]7[C@@]6(C)CC[C@@H]54)C3)nn2)cc(OC)c1OC`, the IC50 with HBL-100, with A549 [8], in the assay on HCT-116 [9] and with HT-29 [10] was 5.16 to 9.44 µM throughout.
`C=CCC1CN2CCC1CC2[C@@H](c1ccnc2ccc(OC)cc12)n1cc(-c2ccc3ccccc3n2)nn1` (some centres undefined): the IC50 with DU-145 [11], in the assay with A549 [12], in the assay with HT-29 [13], in the assay with MV4-11, with MCF-10A and in the assay on MCF7 [14] was 0.53 to 14.6 µM in each case.
Turning to `COc1cc(-c2nc(Cn3cc(CN4C(=O)c5ccc(C)cc5C4=O)nn3)cc3c2[nH]c2ccccc23)cc(OC)c1OC`, the IC50 with PC-3, in the assay on HGC-27, in the assay on HT-29 [10] and in the assay on MCF7 [7] was 3.67 to 26.5 µM each time.
Turning to `Cc1n[nH]c(=O)c2c1c1cc(F)ccc1n2Cc1cn(Cc2ccc(F)cc2)nn1`, the concentration for half-maximal inhibition (IC50) in the assay with U-87 MG, in the assay with IMR-32 and with MDA-MB-231 [1] was 42 to 478 nM each time.
Regarding `C=CCC1CN2CCC1CC2[C@H](O)c1cc(-c2cn(-c3ccccc3)nn2)nc2ccc(OC)cc12` (some centres undefined), the concentration for half-maximal inhibition (IC50) with DU-145 [11], in the assay with A549 [12], in the assay on HT-29 [13], in the assay with MV4-11, with MCF-10A and in the assay with MCF7 [14] was 0.53 to 6.4 µM in each case.
With `COc1ccc(-c2nc(Cn3cc(CN4C(=O)c5cccc6cccc(c56)C4=O)nn3)cc3c2[nH]c2ccccc23)cc1OC`, the IC50 in the assay on PC-3, with HGC-27, in the assay with HT-29 [10] and in the assay on MCF7 [7] was 3.67 to 26.5 µM throughout.
Regarding `Cc1ccc(-n2nc(N)c(C(=O)NCCNC(=O)c3nn(-c4ccc(C)cc4)nc3N)n2)cc1`, the IC50 in the assay with MDA-MB-231 [15] was 7 µM; in the assay on HEK293 it was > 50 µM.
With `Cc1ccc2c(c1)/C(=N/O)C(=O)N2CCOCCn1cc(COc2ccc3c(C)cc(=O)oc3c2)nn1`, the IC50 in the assay with SK-OV-3, with A549 [16], in the assay with MCF7 [17], in the assay on DU-145 [18], in the assay with HeLa and in the assay with MCF7-DOX was 15.5 to 31.5 µM each time. In addition, in the assay with HepG2, the IC50 was in the range of 15.5 to 31.5 µM.
Consider `CC(C)(C)c1ccc(Cn2cc(CNC3=CC(=O)c4ccccc4C3=O)nn2)cc1`, for which the IC50 in the assay on HT-29 [6], in the assay with MOLT-4 and with MCF7 [7] was 6.8 to 31.7 µM throughout.
